In PubChem BioAssay (NCI) one finds TGI and GI50 data, which are given here for 18 compounds.

Test systems include CCRF-CEM leukemia; EKVX NSCLC; OVCAR-4 ovarian; OVCAR-8 ovarian; SK-MEL-2 melanoma; SK-OV-3 ovarian; KM12 colon; NCI/ADR-RES ovarian; MDA-N; T-47D breast.
What all share (assay): inhibition of tumour cell growth, NCI panel, 48 h

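Tested at 5 concentrations; 48 h exposure; 96-well plates; endpoints linearly interpolated, else capped at highest concentration. At the GI50, growth is halved. At the TGI there is no net growth.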

In the case of `COc1ccc(C(=O)Cc2cc(OC)ccc2OC)cc1`, the TGI with CCRF-CEM leukemia, in the assay with EKVX NSCLC, in the assay on OVCAR-4 ovarian, with OVCAR-8 ovarian, in the assay with SK-MEL-2 melanoma and with SK-OV-3 ovarian was over 100 µM in each case.
Take `C=C1C(=O)O[C@H]2C1[C@H](OC(=O)/C(C)=C\COC(C)=O)C[C@]1(CO1)[C@@H]1[C@H](O)[C@H]3O[C@@]3(C)[C@@H]12` (stereo partly drawn): the TGI was 54.2 µM in the assay with CCRF-CEM leukemia; 57.3 µM in the assay with EKVX NSCLC; 29.5 µM in the assay on KM12 colon; 54.7 µM in the assay on NCI/ADR-RES ovarian; over 77.3 µM in the assay with OVCAR-4 ovarian; 99.5 µM in the assay on OVCAR-8 ovarian. The TGI with SK-MEL-2 melanoma was 48.8 µM; in the assay with SK-OV-3 ovarian, over 100 µM.
`COc1ccc(CNc2nc(NCc3ccc(OC)cc3)nc(NC3CCCCC3)n2)cc1`: the TGI in the assay on EKVX NSCLC is 8.5 µM; in the assay on KM12 colon it was 5.47 µM; with MDA-N, over 100 µM; with NCI/ADR-RES ovarian it was 5.36 µM; in the assay on OVCAR-4 ovarian, over 100 µM; in the assay on OVCAR-8 ovarian, 7.17 µM. Further, the values for the TGI in the assay with SK-MEL-2 melanoma, in the assay with SK-OV-3 ovarian and with T-47D breast were 7.86 µM, over 100 µM and over 100 µM, respectively.
For the compound `COc1ccc(/C=N/Nc2[nH]c(=S)nc3[nH]ncc23)cc1`, the TGI in the assay with CCRF-CEM leukemia, with EKVX NSCLC, in the assay on KM12 colon, in the assay on NCI/ADR-RES ovarian, in the assay on OVCAR-4 ovarian and in the assay on OVCAR-8 ovarian was over 100 µM each time. Also, the figures for the TGI with SK-MEL-2 melanoma, with SK-OV-3 ovarian and in the assay with T-47D breast were over 100 µM, over 100 µM and 44.2 µM, respectively.
`CN(C)CCCn1c2ccccc2c2cnccc21`: the TGI with CCRF-CEM leukemia, in the assay on EKVX NSCLC, in the assay with KM12 colon, in the assay on MDA-N, in the assay with NCI/ADR-RES ovarian and in the assay with OVCAR-4 ovarian was over 100 µM each time. The TGI with OVCAR-8 ovarian, with SK-MEL-2 melanoma, in the assay on SK-OV-3 ovarian and in the assay on T-47D breast was over 100 µM throughout.
In the case of `Cc1cc(NS(=O)(=O)c2ccc(Nc3c4ccccc4nc4c(C(=O)NCCN(C)C)ccc(Cl)c34)cc2)no1`, the TGI in the assay on CCRF-CEM leukemia is 10.8 µM; with EKVX NSCLC it was 21.2 µM; in the assay on KM12 colon, 19.3 µM; with OVCAR-4 ovarian, 17.6 µM; in the assay with OVCAR-8 ovarian, 14 µM; in the assay with SK-MEL-2 melanoma, 19.7 µM.
As for `Cc1ncc([N+](=O)[O-])n1CCN=[N+]=[N-]`, the TGI with EKVX NSCLC, with KM12 colon, in the assay on MDA-N, in the assay with NCI/ADR-RES ovarian, in the assay with OVCAR-4 ovarian and in the assay on OVCAR-8 ovarian was over 100 µM throughout. The TGI with SK-MEL-2 melanoma, with SK-OV-3 ovarian and in the assay on T-47D breast was over 100 µM in each case.
In the case of `CCOC(=O)c1c2c(n(C)c1-c1ccccc1)C(=O)C(C)=CC2=O`, the TGI is 7.98 µM in the assay with CCRF-CEM leukemia; 20.5 µM with EKVX NSCLC; 22.5 µM in the assay with KM12 colon; 4.08 µM in the assay with MDA-N; 23.3 µM with NCI/ADR-RES ovarian; 20.3 µM in the assay on OVCAR-4 ovarian. Also, the TGI in the assay on OVCAR-8 ovarian is 15.4 µM; in the assay on SK-MEL-2 melanoma, 31.1 µM; with SK-OV-3 ovarian, 30.4 µM; in the assay on T-47D breast, over 26 µM.
Take `O=S1(=O)NNC(=NCc2ccc(F)cc2)c2ccccc21`: the TGI was over 72.7 µM in the assay with CCRF-CEM leukemia; over 100 µM in the assay with EKVX NSCLC; over 100 µM with KM12 colon; over 100 µM in the assay on MDA-N; over 100 µM in the assay on NCI/ADR-RES ovarian; over 100 µM in the assay on OVCAR-4 ovarian. For the same compound, the TGI in the assay with OVCAR-8 ovarian, in the assay with SK-MEL-2 melanoma, in the assay with SK-OV-3 ovarian and with T-47D breast was over 100 µM in each case.
On to `COc1cn2c(cc1=O)COc1ccc(-c3ccccc3)cc1-2`, for which the GI50 with CCRF-CEM leukemia is 40.2 µM. For the same compound, the TGI in the assay with CCRF-CEM leukemia, in the assay with EKVX NSCLC, in the assay with KM12 colon, with MDA-N, with NCI/ADR-RES ovarian and in the assay with OVCAR-4 ovarian was over 100 µM in each case. Besides, the TGI in the assay on OVCAR-8 ovarian is over 100 µM; with SK-MEL-2 melanoma, over 100 µM; in the assay with SK-OV-3 ovarian it was over 100 µM; in the assay with T-47D breast, over 83.3 µM.
Consider `CC(C)(C)OC(=O)NC(Cc1ccccc1)C(=O)N[C@H]1c2ccsc2/C(=N/O)[C@H]1O` (stereo partly drawn), for which the TGI in the assay on CCRF-CEM leukemia, in the assay with EKVX NSCLC, in the assay on MDA-N, in the assay on NCI/ADR-RES ovarian, in the assay with OVCAR-4 ovarian and in the assay with OVCAR-8 ovarian was over 100 µM throughout. The TGI in the assay on SK-MEL-2 melanoma, in the assay with SK-OV-3 ovarian and with T-47D breast was over 100 µM in each case.
Take `COc1cc(S(=O)(=O)Nc2nc(-c3ccc(N4C(=O)/C(=C/c5ccccc5)N=C4c4ccccc4)cc3)cs2)ccc1Cl`: the TGI with CCRF-CEM leukemia, in the assay on KM12 colon, with MDA-N, in the assay with NCI/ADR-RES ovarian, with OVCAR-4 ovarian and in the assay with OVCAR-8 ovarian was over 100 µM throughout. Moreover, the TGI in the assay with SK-MEL-2 melanoma was 84.8 µM; in the assay on SK-OV-3 ovarian, over 100 µM; with T-47D breast, over 100 µM.
Regarding `CC(C)=CCN(N=O)c1ncnc2nc[nH]c12`, the TGI with CCRF-CEM leukemia, in the assay with EKVX NSCLC, in the assay on KM12 colon, in the assay on MDA-N, in the assay on NCI/ADR-RES ovarian and in the assay with OVCAR-4 ovarian was over 100 µM throughout. Moreover, the TGI with OVCAR-8 ovarian, with SK-OV-3 ovarian and in the assay on T-47D breast was over 100 µM in each case.
As to `CCCCc1ccc2[n+](c1)C(C(=O)OCC)=PC2` (stereo not drawn), the TGI in the assay on CCRF-CEM leukemia, with EKVX NSCLC, in the assay with KM12 colon, in the assay with MDA-N, in the assay on OVCAR-4 ovarian and in the assay on OVCAR-8 ovarian was over 100 µM each time. For the same compound, in the assay with SK-OV-3 ovarian, the TGI is over 100 µM.
`O=C1c2ccccc2-c2ccc(NC(=O)C3CCCCC3C(=O)O)cc21` (stereo not drawn): the TGI with CCRF-CEM leukemia, in the assay on EKVX NSCLC, in the assay with KM12 colon, in the assay on MDA-N, in the assay with NCI/ADR-RES ovarian and in the assay on OVCAR-4 ovarian was over 100 µM each time. Besides, the TGI in the assay with OVCAR-8 ovarian, in the assay with SK-MEL-2 melanoma, in the assay on SK-OV-3 ovarian and in the assay on T-47D breast was over 100 µM throughout.
Take `COc1cc(C2C(Cl)C(=O)N2c2ccc(Br)cc2)cc(I)c1O` (stereo not drawn): the TGI in the assay with CCRF-CEM leukemia, with EKVX NSCLC, in the assay on KM12 colon, with MDA-N, with NCI/ADR-RES ovarian and in the assay on OVCAR-4 ovarian was over 100 µM throughout. Besides, the TGI with OVCAR-8 ovarian, with SK-MEL-2 melanoma, with SK-OV-3 ovarian and in the assay with T-47D breast was over 100 µM in each case.
Consider `COc1cc(N=Nc2cccc(S(=O)(=O)O)c2)c(C)cc1N=Nc1ccc(/C=C/c2ccc(N=[N+]([O-])c3ccc(/C=C/c4ccc(N=Nc5cc(C)c(N=Nc6cccc(S(=O)(=O)O)c6)cc5OC)cc4)c(S(=O)(=O)O)c3)cc2S(=O)(=O)O)cc1`, for which the TGI with CCRF-CEM leukemia, in the assay with EKVX NSCLC, in the assay with KM12 colon, in the assay with NCI/ADR-RES ovarian, in the assay on OVCAR-4 ovarian and in the assay on OVCAR-8 ovarian was over 100 µM in each case. Also, the TGI in the assay on SK-MEL-2 melanoma and with SK-OV-3 ovarian was over 100 µM in each case.
As to `COc1ccccc1C1C(C#N)=C(N)OC2=C1C(=O)CCC2` (stereo not drawn), the GI50 was 59.2 µM with CCRF-CEM leukemia; over 100 µM in the assay with EKVX NSCLC; over 100 µM in the assay with KM12 colon; over 100 µM in the assay with NCI/ADR-RES ovarian; over 100 µM in the assay on OVCAR-4 ovarian; over 100 µM in the assay on OVCAR-8 ovarian. For the same compound, the GI50 in the assay on SK-MEL-2 melanoma, with SK-OV-3 ovarian and in the assay on T-47D breast was over 100 µM in each case. Moreover, the TGI in the assay with CCRF-CEM leukemia, with EKVX NSCLC, with KM12 colon, with NCI/ADR-RES ovarian, with OVCAR-4 ovarian and with OVCAR-8 ovarian was over 100 µM each time. The TGI in the assay with SK-MEL-2 melanoma, in the assay on SK-OV-3 ovarian and in the assay with T-47D breast was over 100 µM throughout.
